Test results: publication PMC7563551, “The Cytokine IL-1β and Piperine Complex Surveyed by Experimental and Computational Molecular Biophysics” (Biomolecules, 2020)

Target: T1, IL-1β (interleukin-1 beta) (Homo sapiens, UniProt P01584)
T1 construct: gene IL1B; 153 residues, single Trp120 and extinction coefficient 11,460 fit the human mature chain; docking model 1ITB chain A
Experiment: Trp120 fluorescence quenching titration, interaction density function with Scatchard plot
Type: binding
Details: read-out: Kb

T1 sequence (P01584 117-269): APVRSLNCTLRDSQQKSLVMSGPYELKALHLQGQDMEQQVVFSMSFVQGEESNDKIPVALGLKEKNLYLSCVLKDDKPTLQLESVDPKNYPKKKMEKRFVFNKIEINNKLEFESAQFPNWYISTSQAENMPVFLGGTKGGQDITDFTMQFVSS

Kd: 6.99 µM
Structure (SMILES): O=C(/C=C/C=C/c1ccc2c(c1)OCO2)N1CCCCC1 [piperine]
